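Protocol summary: plate cells (96-well), add compound at 5 concentrations, incubate 48 h, interpolate endpoints linearly. GI50: concentration for 50% inhibition of growth. TGI: total growth inhibition.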
What was measured:
Assay in all cases: NCI-60 cell line screen, 48 h
NCI/ADR-RES ovarian = system: NCI/ADR-RES ovarian
SR leukemia = system: SR leukemia
SK-MEL-5 melanoma = system: SK-MEL-5 melanoma
OVCAR-3 ovarian = system: OVCAR-3 ovarian
NCI-H226 lung = system: NCI-H226 lung
OVCAR-4 ovarian = system: OVCAR-4 ovarian
DU-145 prostate = system: DU-145 prostate
HCC-2998 colon = system: HCC-2998 colon
CCRF-CEM leukemia = system: CCRF-CEM leukemia
HS 578T breast = system: HS 578T breast
UACC-257 melanoma = system: UACC-257 melanoma
RPMI-8226 leukemia = system: RPMI-8226 leukemia
M14 melanoma = system: M14 melanoma
ACHN renal = system: ACHN renal
SW-620 colon = system: SW-620 colon
MDA-MB-435 = system: MDA-MB-435
SF-268 CNS = system: SF-268 CNS
MDA-MB-231 breast = system: MDA-MB-231 breast
HCT-15 colon = system: HCT-15 colon
TK-10 renal = system: TK-10 renal
MALME-3M melanoma = system: MALME-3M melanoma
BT-549 breast = system: BT-549 breast
CAKI-1 renal = system: CAKI-1 renal
UO-31 renal = system: UO-31 renal
786-0 renal = system: 786-0 renal
T-47D breast = system: T-47D breast
NCI-H460 lung = system: NCI-H460 lung
HOP-62 NSCLC = system: HOP-62 NSCLC
SF-295 CNS = system: SF-295 CNS
COLO 205 colon = system: COLO 205 colon
MOLT-4 leukemia = system: MOLT-4 leukemia
SK-OV-3 ovarian = system: SK-OV-3 ovarian
HL-60(TB) leukemia = system: HL-60(TB) leukemia
SF-539 CNS = system: SF-539 CNS
EKVX NSCLC = system: EKVX NSCLC
NCI-H23 lung = system: NCI-H23 lung
NCI-H522 lung = system: NCI-H522 lung
IGROV1 ovarian = system: IGROV1 ovarian
HOP-92 NSCLC = system: HOP-92 NSCLC
RXF 393 renal = system: RXF 393 renal
OVCAR-8 ovarian = system: OVCAR-8 ovarian
SNB-75 CNS = system: SNB-75 CNS
U251 CNS = system: U251 CNS
SK-MEL-2 melanoma = system: SK-MEL-2 melanoma
LOX IMVI melanoma = system: LOX IMVI melanoma
SK-MEL-28 melanoma = system: SK-MEL-28 melanoma
MCF7 breast = system: MCF7 breast
KM12 colon = system: KM12 colon
SNB-19 CNS = system: SNB-19 CNS
OVCAR-5 ovarian = system: OVCAR-5 ovarian
HCT-116 colon = system: HCT-116 colon
A549 NSCLC = system: A549 NSCLC
HT29 colon = system: HT29 colon
PC-3 prostate = system: PC-3 prostate
UACC-62 melanoma = system: UACC-62 melanoma
K-562 leukemia = system: K-562 leukemia
A498 renal = system: A498 renal
SN12C renal = system: SN12C renal

SMILES: NCCCCCn1c2c(c3ccccc3c1=O)C(=O)c1ccccc1-2
- GI50 (NCI/ADR-RES ovarian): 1410 nM
- TGI (NCI/ADR-RES ovarian): 4860 nM
- GI50 (SR leukemia): 35 nM
- TGI (SR leukemia): 726 nM
- GI50 (SK-MEL-5 melanoma): 617 nM
- TGI (SK-MEL-5 melanoma): 2050 nM
- GI50 (OVCAR-3 ovarian): 1100 nM
- TGI (OVCAR-3 ovarian): 6740 nM
- GI50 (NCI-H226 lung): 479 nM
- TGI (NCI-H226 lung): 2160 nM
- GI50 (OVCAR-4 ovarian): 1540 nM
- TGI (OVCAR-4 ovarian): 5580 nM
- GI50 (DU-145 prostate): 266 nM
- GI50 (HCC-2998 colon): 529 nM
- TGI (HCC-2998 colon): 2630 nM
- GI50 (CCRF-CEM leukemia): 106 nM
- TGI (CCRF-CEM leukemia): 1160 nM
- GI50 (HS 578T breast): 1770 nM
- TGI (HS 578T breast): 12900 nM
- GI50 (UACC-257 melanoma): 2000 nM
- TGI (UACC-257 melanoma): 4700 nM
- GI50 (RPMI-8226 leukemia): 222 nM
- TGI (RPMI-8226 leukemia): 1510 nM
- GI50 (M14 melanoma): 1410 nM
- TGI (M14 melanoma): 3220 nM
- GI50 (ACHN renal): 190 nM
- TGI (ACHN renal): 909 nM
- GI50 (SW-620 colon): 166 nM
- TGI (SW-620 colon): 4090 nM
- GI50 (MDA-MB-435): 1360 nM
- TGI (MDA-MB-435): 3620 nM
- GI50 (SF-268 CNS): 321 nM
- TGI (SF-268 CNS): 3060 nM
- GI50 (MDA-MB-231 breast): 1760 nM
- TGI (MDA-MB-231 breast): 6090 nM
- GI50 (HCT-15 colon): 163 nM
- TGI (HCT-15 colon): 2340 nM
- GI50 (TK-10 renal): 714 nM
- TGI (TK-10 renal): 7080 nM
- GI50 (MALME-3M melanoma): 1130 nM
- TGI (MALME-3M melanoma): 3170 nM
- GI50 (BT-549 breast): 1570 nM
- TGI (BT-549 breast): 4600 nM
- GI50 (CAKI-1 renal): 749 nM
- TGI (CAKI-1 renal): 14000 nM
- GI50 (UO-31 renal): 238 nM
- TGI (UO-31 renal): 1530 nM
- GI50 (786-0 renal): 274 nM
- TGI (786-0 renal): 2010 nM
- GI50 (T-47D breast): 451 nM
- TGI (T-47D breast): 2140 nM
- GI50 (NCI-H460 lung): 53.7 nM
- TGI (NCI-H460 lung): 1020 nM
- GI50 (HOP-62 NSCLC): 221 nM
- TGI (HOP-62 NSCLC): 2190 nM
- GI50 (SF-295 CNS): 527 nM
- TGI (SF-295 CNS): 6380 nM
- GI50 (COLO 205 colon): 639 nM
- TGI (COLO 205 colon): 3270 nM
- GI50 (MOLT-4 leukemia): 28.5 nM
- TGI (MOLT-4 leukemia): 1740 nM
- GI50 (SK-OV-3 ovarian): 531 nM
- TGI (SK-OV-3 ovarian): 2160 nM
- GI50 (HL-60(TB) leukemia): 159 nM
- TGI (HL-60(TB) leukemia): 744 nM
- GI50 (SF-539 CNS): 864 nM
- TGI (SF-539 CNS): 2480 nM
- GI50 (EKVX NSCLC): 4080 nM
- TGI (EKVX NSCLC): 17100 nM
- GI50 (NCI-H23 lung): 314 nM
- TGI (NCI-H23 lung): 1470 nM
- GI50 (NCI-H522 lung): 215 nM
- TGI (NCI-H522 lung): 1690 nM
- GI50 (IGROV1 ovarian): 241 nM
- TGI (IGROV1 ovarian): 2750 nM
- GI50 (HOP-92 NSCLC): 435 nM
- TGI (HOP-92 NSCLC): 3720 nM
- GI50 (RXF 393 renal): 2830 nM
- TGI (RXF 393 renal): > 26300 nM
- GI50 (OVCAR-8 ovarian): 497 nM
- TGI (OVCAR-8 ovarian): 10500 nM
- GI50 (SNB-75 CNS): 1200 nM
- TGI (SNB-75 CNS): 6920 nM
- GI50 (U251 CNS): 232 nM
- TGI (U251 CNS): 4110 nM
- GI50 (SK-MEL-2 melanoma): 1410 nM
- TGI (SK-MEL-2 melanoma): 2960 nM
- GI50 (LOX IMVI melanoma): 221 nM
- TGI (LOX IMVI melanoma): 1760 nM
- GI50 (SK-MEL-28 melanoma): 1460 nM
- TGI (SK-MEL-28 melanoma): 3160 nM
- GI50 (MCF7 breast): 69.6 nM
- TGI (MCF7 breast): 3490 nM
- GI50 (KM12 colon): 284 nM
- TGI (KM12 colon): 2480 nM
- GI50 (SNB-19 CNS): 465 nM
- TGI (SNB-19 CNS): 7660 nM
- GI50 (OVCAR-5 ovarian): 999 nM
- TGI (OVCAR-5 ovarian): 3840 nM
- GI50 (HCT-116 colon): 151 nM
- TGI (HCT-116 colon): 3910 nM
- GI50 (A549 NSCLC): 452 nM
- GI50 (HT29 colon): 246 nM
- TGI (HT29 colon): 4660 nM
- GI50 (PC-3 prostate): 1230 nM
- TGI (PC-3 prostate): 5370 nM
- GI50 (UACC-62 melanoma): 1420 nM
- TGI (UACC-62 melanoma): 3370 nM
- GI50 (K-562 leukemia): 195 nM
- TGI (K-562 leukemia): 2470 nM
- GI50 (A498 renal): 1430 nM
- TGI (A498 renal): 4070 nM
- GI50 (SN12C renal): 305 nM
- TGI (SN12C renal): 3970 nM
